Experimental data reported in patent US20130244929A1 (priority 2010, published 2013).
Where two headings read alike, the source gives them in different places.

How the values were obtained:
[1] = system: MB 5393 (COL), a methicillin-resistant S. aureus strain; experiment: Determination of minimum and synergistic inhibitory concentration; assay type: cell-based; details: for SIC: presence of imipenem (4 μg/mL); for MIC: Staphylococcus aureus
Procedure, shortened: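 Broth microdilution: two-fold compound dilutions (final 64 to 0.0313 μg/mL) tested with and without subinhibitory imipenem (4 μg/mL) against MRSA COL at ~5×10^5 CFU/mL, 37°C, 22-24 hr stationary. MIC is lowest concentration preventing visible growth without imipenem; SIC same with imipenem.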

[2] = system: Staphylococcus aureus (strain B, MRSA COL); experiment: Deep thigh MRSA infection mouse model; assay type: in vivo, mice BALB/c
Protocol: (§1) Female mice BALB/c mice (20-25 g) were rendered neutropenic via intraperitoneal injection of cyclophosphamide (Mead Johnson Pharmaceuticals) on Day −4 (250 mg/kg, disseminated) or Days −4/−1 (150/100 mg/kg, deep thigh) prior to experimental infection. Neutropenic mice were infected on Day 0 via intraperitoneal (disseminated) or intramuscular (deep thigh) injection of 0.1 ml containing ˜1-5×10^4 CFU Staphylococcus aureus (strain B, MRSA COL). Linezolid (Zyvox IV solution, Bell Medical) was employed as an assay control. Fifteen minutes post infection, increasing doses of Example 3 (20, 40 and 80 mg/kg) or vehicle were administered subcutaneously (SC) TID with or without Imipenem/Cilastatin (6/50 mg/kg SC TID, disseminated; 10/50 mg/kg SC TID, deep thigh). Twenty four hours post dosing, mice were euthanized and infected kidneys (disseminated) or thighs (deep thigh) were aseptically removed, placed in 4 ml sterile phosphate buffered saline (Fisher Scientific), and homogenized using a Polytron (Brinkmann Instruments). Homogenates were serially 100-fold diluted in 9.9 ml sterile saline and plated on Mannitol Salt Agar plates. Plates were incubated at 35° C. for 48 hours and colony forming units (CFU) of bacteria remaining per thigh were determined.

[3] = system: Staphylococcus aureus (strain B, MRSA COL); experiment: Disseminated MRSA infection mouse model; assay type: in vivo, mice BALB/c
Protocol: as §1

[4] = biological target: T1, SpsB (Staphylococcus aureus, UniProt P0A070); experiment: Inhibition of SpsB enzyme activity (fluorescence-based assay, bacterial membrane fraction); assay type: biochemical
T1 construct: using a bacterial membrane fraction as a source of SpsB; from tissue
T1 sequence (P0A070 1-191): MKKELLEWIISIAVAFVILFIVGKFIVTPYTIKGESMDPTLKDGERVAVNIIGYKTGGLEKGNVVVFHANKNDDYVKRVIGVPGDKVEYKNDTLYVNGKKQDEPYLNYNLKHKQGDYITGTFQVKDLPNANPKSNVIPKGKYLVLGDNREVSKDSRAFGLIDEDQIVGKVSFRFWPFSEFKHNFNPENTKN
Procedure, shortened: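 Membrane fraction from bacteria supplied SpsB (0.6 mg/mL final protein), added last to start reactions with 20 μM lipopeptide substrate decanoyl-K(DABCYL)-TPTAKA↓ASKKD-D(EDANS)-NH2 (Km≈5 μM). Cleavage was followed as rising fluorescence, excitation 340/emission 460 nm.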

[5] = system: MRSA strain COL; experiment: Checkerboard studies with imipenem; assay type: cell-based, Staphylococcus aureus; details: combined with Imipenem, FIG. 1
Protocol: FIG. 1: An SpsB inhibitor and Imipenem synergize to inhibit bacterial growth in vitro. The MIC of SpsB inhibitor on the MRSA strain COL was assessed by varying the concentration of the compound (0.016-16 μg/ml) in the absence and presence of various concentrations of Imipenem (0.5-32 μg/ml) and FIC values were generated for both compounds.
The checkerboard method is the technique most frequently used to assess antimicrobial combinations in vitro. See Antibiotics in Laboratory Medicine, Victor Lorian ed., 2005). The checkerboard comprises a two-dimensional dilution scheme: columns in which each well contains the same amount of Drug A being two-fold diluted along the x-axis, and rows in which each well contains the same amount of Drug B being two-fold diluted on the Y-axis. The result is that each well contains a unique combination of the two drugs being tested. Also tested is the antimicrobial activity of each agent singly.
Imipenem was two-fold serially diluted along the Y-axis of 96-well U-bottom microtiter dishes (Fisher Scientific) in microbiological growth media (either brain heart infusion broth or cation-adjusted Mueller-Hinton broth +2% NaCl). […]
In this representation, data are expressed as fractional inhibitory concentrations (FIC), defined as the ratio between the MIC of one compound in the presence of the other, over its MIC alone. […]

[6] = from COC(=O)[C@H](Cc1ccc(OC)c(B2OC(C)(C)C(C)(C)O2)c1)NC(=O)[C@H](C)NC(=O)[C@@H](NC(=O)OC(C)(C)C)c1ccc(OC)c(I)c1; cc_pd bond; PdCl2(dppf); acetonitrile; 70.3 mM; 44.0 °C; 3.0 h
[7] = MRSA COL, absence of imipenem, 22 hours, read-out: MIC

Row | Structure (SMILES) | SIC ([1]; MRSA COL, 22 hours) | IC50 [4] [nM] | MIC ([1]; MRSA, 22 h) [µg/mL] | further results
1 | CCCc1ccc(-c2ccc(C(=O)NCCC(=O)N[C@@H](CCCCN)C(=O)N(C)[C@@H]3C(=O)N[C@@H](C)C(=O)N[C@H](C(=O)O)Cc4ccc(O)c(c4)-c4cc3ccc4O)cc2)cc1.O=C(O)C(F)(F)F [EXAMPLE 3, (5S)-6-[[(7S,10S,13S)-13-carboxy-3,18-dihydroxy-10-methyl-8,11-dioxo-9,12-diazatricyclo[13.3.1.1^2,6]icosa-1(19),2(20),3,5,15,17-hexaen-7-yl](methyl)amino]-6-oxo-5-[(3-{[(4′-propylbiphenyl-4-yl)carbonyl]amino}propanoyl)amino]hexan-1-aminium trifluoroacetate] | H (H: SIC 0.062-1) | < 10 |  | MIC [1, 7]: < 1 µg/mL; effect on MRSA COL bacterial burden ([2]; Example 3 alone, 20, 40 and 80 mg/kg SC TID, thighs, relative to vehicle, FIG. 2B): negligible anti-bacterial effects; reduction in bacterial burden ([2]; co-administered with Imipenem/Cilastatin 10/50 mg/kg SC TID, deep thigh): 2-3 log; effect on MRSA COL bacterial burden ([3]; Example 3 alone, 20, 40 and 80 mg/kg SC TID, kidneys, relative to vehicle, FIG. 2A): negligible anti-bacterial effects; reduction in bacterial burden ([3]; co-administered with Imipenem/Cilastatin 6/50 mg/kg SC TID, disseminated): 2-3 log; synergy in isobologram (FIC) of bacterial growth [5]: synergistic effect
2 | COC(=O)[C@@H]1Cc2ccc(OC)c(c2)-c2cc(ccc2OC)[C@H](NC(=O)OC(C)(C)C)C(=O)N[C@@H](C)C(=O)N1 |  |  |  | ring closure, yield of all isomers [6]: 20%
3 | CCCCCCCCCc1ccc(-c2nc(C(=O)NCCC(=O)N[C@@H](CCCCN)C(=O)N(C)[C@@H]3C(=O)N[C@@H](C)C(=O)N[C@H](C(=O)O)Cc4ccc(O)c(c4)-c4cc3ccc4O)cs2)cc1 [EXAMPLE 41] | G (G: SIC <0.0625) | < 10 | < 1 | 
4 | CCCCCCCCCCc1ccc2cc(C(=O)NCCC(=O)N[C@@H](CCCC(=O)O)C(=O)N(C)[C@@H]3C(=O)N[C@@H](C)C(=O)N[C@H](C(=O)O)Cc4ccc(O)c(c4)-c4cc3ccc4O)ccc2c1 [EXAMPLE 60] | G (G: SIC <0.0625) | 10 to 50 |  | MIC [1, 7]: 1 to 8 µg/mL
5 | CC(C)CCCCCCc1ccc(-c2ccc(C(=O)NCCC(=O)N[C@@H](CCCCN)C(=O)N(C)[C@@H]3C(=O)N[C@@H](C)C(=O)N[C@H](C(=O)O)Cc4ccc(O)c(c4)-c4cc3ccc4O)cc2)cc1 [EXAMPLE 37] | G (G: SIC <0.0625) | < 10 | < 1 | 
6 | CCCCCCCCCc1ccc(-c2ccc(C(=O)NCCC(=O)N[C@@H](CCCCN)C(=O)N(C)[C@@H]3C(=O)N[C@@H](C)C(=O)N[C@H](C(=O)O)Cc4ccc(O)c(c4)-c4cc3ccc4O)nc2)cc1 [EXAMPLE 32] | G (G: SIC <0.0625) | < 10 | < 1 | 
7 | CCCCCCCCCCc1ccc2cc(C(=O)NCCC(=O)N3CC[C@H]3C(=O)N(C)[C@@H]3C(=O)N[C@@H](C)C(=O)N[C@H](C(=O)O)Cc4ccc(O)c(c4)-c4cc3ccc4O)ccc2c1 [EXAMPLE 20, (8S,11S,14S)-3,18-dihydroxy-11-methyl-14-(methyl[(2R)-1-{3-[(6-decyl-2-naphthoyl)amino]propanoylazetidin-2-yl]carbonyl}amino)-10,13-dioxo-9,12-diazatricyclo[13.3.1.1^2,6]icosa-1(19),2(20),3,5,15,17-hexaene-8-carboxylic acid] | G (G: SIC <0.0625) | < 10 |  | MIC [1, 7]: 1 to 8 µg/mL
8 | C[C@@H]1NC(=O)[C@@H](N(C)C(=O)[C@H](CCCCN)NC(=O)CCNC(=O)c2coc(CCCCCCCCc3ccccc3)n2)c2ccc(O)c(c2)-c2cc(ccc2O)C[C@@H](C(=O)O)NC1=O [EXAMPLE 64] | G (G: SIC <0.0625) | 10 to 50 | < 1 | 
9 | CCCCCCCCCc1ccc(-c2cccc3c(C(=O)NCCC(=O)N[C@@H](CCCCN)C(=O)N(C)[C@@H]4C(=O)N[C@@H](C)C(=O)N[C@H](C(=O)O)Cc5ccc(O)c(c5)-c5cc4ccc5O)cnn23)cc1 [EXAMPLE 65] | G (G: SIC <0.0625) | 10 to 50 | 1 to 8 | 
10 | CCCCCCCCCc1ccc(-c2cnc(C(=O)NCCC(=O)N[C@@H](CCCCN)C(=O)N(C)[C@@H]3C(=O)N[C@@H](C)C(=O)N[C@H](C(=O)O)Cc4ccc(O)c(c4)-c4cc3ccc4O)nc2)cc1 [EXAMPLE 63] | G (G: SIC <0.0625) | 10 to 50 | < 1 | 
11 | C[C@@H]1NC(=O)[C@@H](N(C)C(=O)[C@@H]2CCCN2C(=O)CCNC(=O)c2ccc(CCCCCCCCc3ccccc3)cc2)c2ccc(O)c(c2)-c2cc(ccc2O)C[C@@H](C(=O)O)NC1=O [EXAMPLE 59] | H (H: SIC 0.062-1) | < 10 | 1 to 8 | 
12 | CCCCc1ccc(-c2ccc(C(=O)NCCC(=O)N[C@@H](CCCCN)C(=O)N(C)[C@@H]3C(=O)N[C@@H](C)C(=O)N[C@H](C(=O)O)Cc4ccc(O)c(c4)-c4cc3ccc4O)cc2)cc1 [EXAMPLE 51] | G (G: SIC <0.0625) | < 10 | < 1 | 
